Results: patent US20080132531A1, “SYNERGISTIC COMBINATIONS OF N[…] OPIOID ANALGESICS” (Yaupon Therapeutics, Inc., priority 2005, published 2008)

Key:
[1] = test system: neuropathic rats (sciatic nerve constriction), nerve-injured paw; assay: Sciatic nerve constriction model of peripheral neuropathy, mechanical (paw pressure) and thermal (plantar) hyperalgesia; type: in vivo, Sprague Dawley rats; settings: for ED50: Rattus norvegicus, read-out: ED50 (antinociceptive potency); for ED50 / ED50 (antinociceptive potency): from % MPE vs. log dose curves; for antinociception in response to mechanical and thermal noxious stimuli on the nerve-injured paw: 1, 2, 4, 8 mg/kg IP
Experimental: (§1) Sprague Dawley (about 90 days old; 350 g) male rats were used (8 rats/drug/experimental group). R,S-norketamine, S-norketamine, R-norketamine (Yaupon Therapeutics Inc.) and R,S-ketamine (Sigma) were dissolved in saline and injected intraperitoneally (IP, 1 ml/kg). Each rat received four doses of a drug (1, 2, 4, 8 mg/kg; repeated block Latin square design; 48 h intervals). Saline served as control.
A sciatic nerve constriction model of peripheral neuropathy previously employed was used [Benett and Xie, 1988]. Briefly, under pentobarbital anesthesia (40 mg/kg, IP) the ligation of sciatic nerve and sham surgery were performed on the left and right hind paws, respectively. Proximal to the sciatic trifuracation, nerve (7 mm) was freed from adhering tissue and four loose ligatures were tied around nerve (1 mm apart) with 4.0 chromic gut, barely constricting the diameter of the nerve. The incision was closed in layers. […] No severe motor impairment was observed.
The analgesic properties of drugs were determined in neuropathic rats. Responsiveness to both mechanical and thermal noxious stimulations was determined in separate groups of rats. Rats were trained on three occasions before initiation of the study. Experiments were performed on days 7, 9, 11 and 14 of recovery from surgery (as this is the time of maximal hyperalgesia [Holtman et al., 2003]). Responses were assessed prior to (baseline, taken twice) and at 15-120 min after injection. The left and right paws were tested alternatively in each rat.
Mechanical hyperalgesia was measured using an increasing amount of weight to the paw [Randall and Selitto, 1957]. The hind paw was placed between a flat surface and a blunt pointer in the Basile Analgesimeter (UGO Basile) and increasing pressure (32 g/s) was applied to the dorsal side of the paw. Vocalization was used as end-point [vocalization threshold, VT (g)]. Cut-off at 300 g prevented tissue damage.
The thermal hyperalgesia was measured by plantar test which used a ramp heat stimulus [Hargreaves et al., 1988]. The radiant heat (60% intensity) was positioned under the glass floor directly beneath the plantar hind paw in Plantar Stimulator Analgesia Meter (IITC, Life Science). Latency of paw withdrawal from the heat source was measured [paw withdrawal threshold, PWT (s)]. A cut-off at 20 s prevented tissue damage.
All data were normalized for preinjection baseline values. Areas under the curves (AUC) were calculated for normalized data. Maximum possible effect was calculated as % MPE=(post drug response−baseline/cut off−baseline)×100. ED50 was calculated from % MPE vs. log dose curves. All data were presented as mean ±SEM of 8 rats. The statistical analysis was performed with use of one and two-way repeated measures analysis of variance (ANOVA), post hoc Student Newman Keulus (SNK), Dunnan and t tests.

intact (unoperated) rats [2] = assay: Ataxia, behavioral rating scale, intact rats; type: in vivo, Sprague Dawley rats; settings: pilot study
Experimental: as §1
(§2) The behavioral effects of drugs were determined in intact (unoperated) rats. Locomotor activity was determined using the Opto-Varimex infrared photocell-based activity monitor (Columbus Instrument). All activities were scored during 5 min sessions, prior to and 15, 60 and 120 min after injection. All testing were conducted between 10:00-13:00. Assessments were performed in 48 h intervals. Ataxia was determined at 0, […] after injection. The modified behavioral scale [Sturgon et al., 1979] was used for quantification (Table 1).

intact (unoperated) rats [3] = assay: Locomotor activity in intact rats (Opto-Varimex activity monitor); type: in vivo, Sprague Dawley rats; settings: highest dose 8 mg/kg IP
Experimental: as §1, §2

Sprague-Dawley rats [4] = assay: Tail-flick test (radiant thermal stimulus); type: in vivo; settings: for antinociception, drug alone, IP: morphine 2-10 mg/kg, S-norketamine 0.75-3 mg/kg; for antinociception, drug alone, IT: morphine 3-30 μg, S-norketamine 10-100 μg
Experimental: A dose response curve was generated by determining the analgesic effects of combining a constant dose of an opioid (e.g., morphine) along with an increasing dose of R,S-norketamine, Male and female Sprague-Dawley rats (n=8/sex) all with an approximate age of 85 to 90 days. Each rat should be weighed, prior to being subjected to any tests, on the day of the experiment. Experiments were performed in 72 hour intervals, and prior to the test, the rats were habituated for three days to handling and the tail-flick procedure without heat exposure. • 1 The tail-flick apparatus (IITC Model 33, Life Science, Woodland Hills, Calif.) is pre-warmed for at least 30 minutes. • 2 The intensity of the lamp is adjusted so that baseline tail-flick latency for the rats is equal to approximately 2.0 seconds. […] Tail-flick latency (“TFL”) is measured twice in an approximate 15 minute intervals and an average of the two times determines the baseline. • 8 Once the baseline value is determined, TFL is measured, following the injection of drugs, at times 15, 30, 60 and 120 minutes.
• Normalize data for baseline value (postinjection value at each time point−average preinjection baseline). • Calculate area under the curve (AUC0-120min) for normalized data. • Calculate maximum area under the curve (AUCmax), assuming 10 second response for each time point. • Calculate % MPE=(AUC0-120min)/(AUCmax)×100. • Post-injection thresholds are compared to the baseline threshold using paired t-test. • The difference between doses will be analyzed by 2 way RM ANOVA. • The difference between sex will be analyzed by 2 way RM ANOVA. • All data are presented as mean ±SEM of n rats.
• Normalized data (NOR): subtract average baseline from each value NOR=(post-injection TFL)−(pre-injection baseline) • 12 Percent maximum effect (MPE): • % MPE=(post-injection value−pre-injection baseline)/(cut-off−pre-injection baseline)×100% • 13 Area under the time action curve (AUC0-120 min) calculated by trapezoidal rule • Individual AUC0-120 min.=(average value over the time interval)×(time interval) • Total AUC0-120 min.: sum of individual AUC • Example: AUC0-120 min., % MPE=(15-0 min)×[(MPE0+MPE15)×½]+(30−15)×[(MPE30+MPE15)×½]
A study was undertaken to determine whether S-norketamine (“norKET”) enhances the analgesic effect of morphine (“MOR”). […] Saline (vehicle) served as a control. Responsiveness to thermal noxious stimuli was determined using the tail-flick assay (baseline tail-flick latency (TFL) ˜2-3 s; cut off TFL=10 s). TFL was determined at 0, 15, 30, 60, 90, and 120 min.
Male Sprague-Dawley rats, approximately 90 days old, weighting about 300 g were used. Intrathecal catheter: Chronic catheterization of the spinal subarachnoid space was performed according to Yaksh and Rudy (1976). Drugs: Morphine sulfate (Mallinckrodt) and S-norketamine hydrochloride (Yaupon Therapeutics, Inc.) were dissolved in saline. Saline served as control. Doses refer to salt forms.
Graded doses of morphine and S-norketamine alone as well as a fixed dose of morphine combined with various doses of S-norketamine were administered […] (IP) or intrathecally (IT) in volumes equal to 1 ml/kg and 10 μl, respectively. Doses were balanced by Latin square design: 2× (4×4). Injections were made at weekly intervals.
Tail flick latencies (TFL) were measured using a standard tail-flick apparatus (LifeScience). Preinjection baseline and cut-off times were equal to 2-3 s and 10 s, respectively. TFL was assessed twice prior to (baseline) and at fixed time points after injection. All data were normalized for baseline. The areas under the time action curves (AUC0-120 min) were calculated for normalized data. The percent of maximum effect was calculated as % MPE=[(TFL-baseline)/(10-baseline)×100] at each time point. Data are presented as mean ±SEM of (n) rats.

[5] = Aun, 1999, cited from earlier work
[6] = Plasma levels of S-norketamine versus antinociception (pilot study); type: in vivo; settings: after IP administration in rat
Experimental: Plasma concentration of S-norketamine 200-700 ng/ml was associated with the significant analgesic effect after IP administration in rat.

Sprague-Dawley rats [7] = assay: Opioid tolerance development, tail-flick test; type: in vivo; settings: for effect on oxycodone tolerance development: S-norketamine given with oxycodone, IP
Experimental: A tail flick test as described above was administered intrapertoneally to eight Sprague-Dawley rats as described above. The * symbol denotes a statistically difference with oxycodone and norketamine combined versus the two drugs used alone. Data were analyzed with the SNK method, with P less than 0.05. […] A tail flick test as described above was administered intrapertoneally to eight Sprague-Dawley rats as described above. The * symbol denotes a difference with oxycodone used alone as compared to the combination of oxycodone with S norketameine and the +symbol denotes a difference from day 1. Data were analyzed with the SNK method, with P less than 0.05.

rat = assay: Analgesic dose of norketamine in the rat; type: in vivo
Experimental: An “optimal” dose is defined as a dose of an analgesic, when taken alone, is sufficient to provide analgesic relief. In the rat, for example, an optimal dose of norketamine is about 8 mg/kg intraperitoneally (IP). A “sub-optimal” dose is defined as about 1 to about 60% of the optimal dose used to induce analgesia; more preferably about 5% to about 40%, and even more preferably about 10% to about 20%. A “sub-analgesic” does is defined as a dose at which little to no analgesic effect is provided. For example, a sub-analgesic dose of norketamine is less than about 3 mg/kg. Typically, a sub-analgesic dose correlates with less than about 5 AUC units or less than about 5% MPE (maximum possible effect).

NMDA receptor = settings: Ebert et al., 1997; cited from earlier work
rats = settings: intravenous or intraspinal; cited from earlier work

## CNC1(c2ccccc2Cl)CCCCC1=O (racemic) [R,S-ketamine, 2-(2-chlorophenyl)-2-(methylamino)-cyclohexanone, reference compound]
[1]; nerve-injured paw, IP
  ED50: 15.8 ± 0.38 mg/kg
Intact (unoperated) rats [2]
  ataxia: marked ataxia

## NC1(c2ccccc2Cl)CCCCC1=O (racemic) [R,S-norketamine, 2-(2-chlorophenyl)-2-amino-cyclohexanone]
[1]; nerve-injured paw, IP
  ED50: 11.3 ± 0.23 mg/kg
  duration of antinociceptive effect: > 2 h
[1]; nerve-injured paw
  antinociception in response to mechanical and thermal noxious stimuli on the nerve-injured paw: dose-related antinociception
[1]; IP
  antinociception on the control (sham-operated) paw: No antinociception
Intact (unoperated) rats [3]
  motor (depressive) / locomotor effect: less pronounced
Intact (unoperated) rats [2]
  ataxia: no ataxia

## CN1CC[C@]23c4c5ccc(O)c4O[C@H]2[C@@H](O)C=C[C@H]3[C@H]1C5 [Morphine, reference compound]
Sprague-Dawley rats [4]; IP
  antinociception, drug alone, IP: dose-related antinociception
Sprague-Dawley rats [4]
  antinociception, drug alone, IT: dose-related antinociception
Sprague-Dawley rats [4]; morphine alone 30 μg IT
  % MPE: 60%
Sprague-Dawley rats [4]; morphine alone 10 mg/kg IP
  % MPE: 100%

## N[C@@]1(c2ccccc2Cl)CCCCC1=O [R-norketamine]
[1]; nerve-injured paw
  antinociception in response to mechanical and thermal noxious stimuli on the nerve-injured paw: attenuated, in dose-related fashion
[1]; nerve-injured paw, IP
  ED50 (antinociceptive potency): 51.1 ± 0.54 mg/kg
[1]; IP
  antinociception on the control (sham-operated) paw: Neither drug had effect

## CN[C@]1(c2ccccc2Cl)CCCCC1=O [S-ketamine, reference compound]
[5]
  potency relative to R-ketamine: twice as potent as R-ketamine

## N[C@]1(c2ccccc2Cl)CCCCC1=O [S-norketamine]
[1]; nerve-injured paw
  antinociception in response to mechanical and thermal noxious stimuli on the nerve-injured paw: attenuated, in dose-related fashion
[1]; nerve-injured paw, IP
  ED50 (antinociceptive potency): 7.3 ± 0.18 mg/kg
[1]; IP
  antinociception on the control (sham-operated) paw: Neither drug had effect
[6]
  plasma concentration associated with the significant analgesic effect: 200 to 700 ng/mL
Intact (unoperated) rats [3]
  motor (depressive) / locomotor effect: less for S than R isomer
Intact (unoperated) rats [2]
  ataxia: no ataxia
Sprague-Dawley rats [4]; IP, comparison with Holtman et al., 2003
  ability to enhance morphine analgesia compared with ketamine-morphine interaction: greater than that previously demonstrated for ketamine-morphine
Sprague-Dawley rats [4]; IP
  antinociception, drug alone, IP: did not produce an antinociceptive effect
Sprague-Dawley rats [4]
  antinociception, drug alone, IT: did not produce an antinociceptive effect
Sprague-Dawley rats [4]; S-norketamine 0.75-3 mg/kg IP with morphine 3 mg/kg IP
  potentiation of the antinociceptive effect of low dose morphine, IP: dose-dependently potentiated
Sprague-Dawley rats [4]; S-norketamine 10-100 μg IT with morphine 0.5 μg IT
  potentiation of the antinociceptive effect of low dose morphine, IT: dose-dependently potentiated
Sprague-Dawley rats [7]; S-norketamine given with morphine
  effect on morphine tolerance: reduction of morphine tolerance
Sprague-Dawley rats [7]
  effect on oxycodone tolerance development: tolerance of oxycodone is inhibited
Sprague-Dawley rats [7]; listed as S-norketamine HCl
  effect on oxycodone tolerance development: attenuation of oxycodone tolerance development

## NC1(c2ccccc2Cl)CCCCC1=O (centres unmarked) [norketamine, 2-(2-chlorophenyl)-2-amino-cyclohexanone]
rat; in vivo
  sub-analgesic dose (little to no analgesic effect): less than 3 mg/kg
rat; intraperitoneally (IP)
  optimal dose (sufficient alone to provide analgesic relief): about 8 mg/kg
NMDA receptor
  NMDA receptor binding relative to ketamine enantiomers: less tightly than either S- or R-ketamine
[5]; speculated
  anesthetic and analgesic potency relative to ketamine: one third that of ketamine
rats
  adverse sequelae relative to an equal dose of ketamine: fewer of the adverse sequelae
